Patent publication US8853246B2 (Dow AgroSciences LLC, priority 2009, dated 2014)
Like-named read-outs stand apart in the source and are kept apart here.

Legend:
[1] = system: Green Peach Aphid (Myzus Persicae); test: Insecticidal test for green peach aphid in foliar spray assay (col. MYZUPE); assay type: in vivo; details: for pest or weed control at 200 ppm: Myzus persicae, 72 h, read-out: MYZUPE 200 ppm (Corrected % Control, rating)
Method in brief: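 Cabbage seedlings with 2-3 true leaves, infested with 20-50 wingless adult and nymph aphids one day earlier, sprayed to runoff at 200 ppm (acetone/methanol stock diluted in 0.025% Tween 20), four pots per treatment. After 3 days at ~25 °C, 40% RH, live aphids counted; corrected % control versus solvent-sprayed plants.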

[2] = system: Sweetpotato Whitefly-Crawler (Bemisia Tabaci); test: Insecticidal test for sweetpotato whitefly-crawler in foliar spray assay (col. BEMITA); assay type: in vivo; details: for pest or weed control at 200 ppm: Bemisia tabaci, read-out: BEMITA 200 ppm (Corrected % Control, rating)
Method in brief: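 Cotton plants (one 3-5 cm true leaf) infested with whitefly eggs (100-300/plant), held 5-6 days at 82° F, 50% RH until crawlers developed. Sprayed to runoff at 200 ppm (acetone stock diluted in 0.025% Tween 20), four plants per treatment. Live nymphs counted after 8-9 days; % control by Abbott's correction versus solvent check.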

| Compound | pest or weed control at 200 ppm ([1]; green peach aphid) [%] | pest or weed control at 200 ppm ([2]; sweetpotato whitefly-crawler) [%] | pest or weed control at 200 ppm ([1]; Abbott's correction formula) [%] | pest or weed control at 200 ppm ([2]; Abbott's correction formula) [%] | other results |
| --- | --- | --- | --- | --- | --- |
| CSC(C)C(=O)N(C(=O)OC(C)(C)C)c1sc(-c2cccnc2)nc1C (stereo not drawn) [Compound 357] | 80 to 100 | 80 to 100 |  |  |  |
| CCSCC(=O)N(C)c1sc(-c2cccnc2)nc1C [Compound 358] | 80 to 100 | 80 to 100 |  |  |  |
| CSC(C)C(=O)N(C)c1sc(-c2cccnc2)nc1C (stereo not drawn) [Compound 360] | 80 to 100 | < 80 |  |  |  |
| C=Cc1nc(-c2cncc(F)c2)sc1N(C)C(=O)OC(C)(C)C [Compound 363, [2-(5-fluoro-pyridin-3-yl)-4-vinyl-thiazol-5-yl]-methyl-carbamic acid-tert-butyl ester] | < 80 | 80 to 100 |  |  |  |
| CSCC(C)C(=O)Nc1sc(-c2cncc(F)c2)nc1Cl (stereo not drawn) [Compound 364] | 80 to 100 | 80 to 100 |  |  |  |
| Cc1nc(-c2cccnc2)sc1N(C)C(=O)c1cscn1 [Compound 365] | 80 to 100 | < 80 |  |  |  |
| CSCC(=O)N(C)c1sc(-c2cccnc2)nc1C [Compound 367] | 80 to 100 | < 80 |  |  |  |
| CSCCCC(=O)N(C)c1sc(-c2cccnc2)nc1C [Compound 368] | 80 to 100 | 80 to 100 |  |  |  |
| CSCCCC(=O)N(C)c1sc(-c2cccnc2)nc1Cl [Compound 371] | 80 to 100 | 80 to 100 |  |  |  |
| CN(C(=O)c1cccc(SC(F)F)c1)c1sc(-c2cccnc2)nc1Cl [Compound 382] | < 80 | < 80 |  |  |  |
| CCS(=O)(=O)N1CCCC(C(=O)N(C)c2sc(-c3cccnc3)nc2Cl)C1 (stereo not drawn) [Compound 394] | 80 to 100 | 80 to 100 |  |  |  |
| Cc1nc(-c2cccnc2)sc1N(C)C(=O)c1cccc(SC(F)F)c1 [Compound 397] | 80 to 100 | 80 to 100 |  |  |  |
| Cc1nc(-c2cccnc2)sc1NC(=O)c1ccoc1 [Compound 399] | 80 to 100 | 80 to 100 |  |  |  |
| CN(C(=O)c1ccoc1)c1sc(-c2cccnc2)nc1Cl [Compound 401] |  |  |  |  | MYZUPE 200 ppm (Corrected % Control, rating) ([1]; green peach aphid): A (80-100); BEMITA 200 ppm (Corrected % Control, rating) ([2]; sweetpotato whitefly-crawler): A (80-100) |
| Cc1nc(-c2cccnc2)sc1N(C)C(=O)c1ccc([S+](C)[O-])cc1 (stereo not drawn) [Compound 402] |  |  |  |  | MYZUPE 200 ppm (Corrected % Control, rating) ([1]; green peach aphid): A (80-100); BEMITA 200 ppm (Corrected % Control, rating) ([2]; sweetpotato whitefly-crawler): A (80-100) |
| CN(C(=O)c1ccc([S+](C)[O-])cc1)c1sc(-c2cccnc2)nc1Cl (stereo not drawn) [Compound 403] |  |  |  |  | MYZUPE 200 ppm (Corrected % Control, rating) ([1]; green peach aphid): A (80-100); BEMITA 200 ppm (Corrected % Control, rating) ([2]; sweetpotato whitefly-crawler): B (Less than 80) |
| Cc1nc(-c2cccnc2)sc1N(C)C(=O)c1ccc(=O)n(C)n1 [Compound 404] |  |  |  |  | MYZUPE 200 ppm (Corrected % Control, rating) ([1]; green peach aphid): A (80-100); BEMITA 200 ppm (Corrected % Control, rating) ([2]; sweetpotato whitefly-crawler): B (Less than 80) |
| CN(C(=O)c1ccc(=O)n(C)n1)c1sc(-c2cccnc2)nc1Cl [Compound 405] |  |  |  |  | MYZUPE 200 ppm (Corrected % Control, rating) ([1]; green peach aphid): A (80-100); BEMITA 200 ppm (Corrected % Control, rating) ([2]; sweetpotato whitefly-crawler): B (Less than 80) |
| Cc1cc(C(=O)Nc2sc(-c3cccnc3)nc2C)ccn1 [Compound 406] | 80 to 100 | < 80 |  |  |  |

| Compound | pest or weed control at 200 ppm ([1]; green peach aphid) [%] | pest or weed control at 200 ppm ([2]; sweetpotato whitefly-crawler) [%] | pest or weed control at 200 ppm ([1]; Abbott's correction formula) [%] | pest or weed control at 200 ppm ([2]; Abbott's correction formula) [%] | other results |
| --- | --- | --- | --- | --- | --- |
| Cc1cc(C(=O)N(C)c2sc(-c3cccnc3)nc2Cl)ccn1 [Compound 407] | 80 to 100 | < 80 |  |  |  |
| CSCc1ccc(C(=O)Nc2sc(-c3cccnc3)nc2C)o1 [Compound 408] | 80 to 100 | 80 to 100 |  |  |  |
| CSCc1ccc(C(=O)N(C)c2sc(-c3cccnc3)nc2Cl)o1 [Compound 409] |  |  |  |  | MYZUPE 200 ppm (Corrected % Control, rating) ([1]; green peach aphid): A (80-100); BEMITA 200 ppm (Corrected % Control, rating) ([2]; sweetpotato whitefly-crawler): A (80-100) |
| Cc1nc(-c2cccnc2)sc1N(C)C(=O)C1CCCN(C(=O)C(C)C)C1 (stereo not drawn) [Compound 410] | 80 to 100 | 80 to 100 |  |  |  |
| CC(C)C(=O)N1CCCC(C(=O)N(C)c2sc(-c3cccnc3)nc2Cl)C1 (stereo not drawn) [Compound 411] | 80 to 100 | 80 to 100 |  |  |  |
| CC(=O)N1CCCC(C(=O)N(C)c2sc(-c3cccnc3)nc2C)C1 (stereo not drawn) [Compound 412] | 80 to 100 | 80 to 100 |  |  |  |
| CC(=O)N1CCCC(C(=O)N(C)c2sc(-c3cccnc3)nc2Cl)C1 (stereo not drawn) [Compound 413] | 80 to 100 | < 80 |  |  |  |
| CN(C(=O)C1CCOC1)c1sc(-c2cccnc2)nc1Cl (stereo not drawn) [Compound 415] |  |  |  |  | MYZUPE 200 ppm (Corrected % Control, rating) ([1]; green peach aphid): A (80-100); BEMITA 200 ppm (Corrected % Control, rating) ([2]; sweetpotato whitefly-crawler): A (80-100) |
| Cc1nc(-c2cccnc2)sc1NC(=O)CCC1CC1 [Compound 416] | 80 to 100 | 80 to 100 |  |  |  |
| Cc1nc(-c2cccnc2)sc1NC(=O)CC1CC1 [Compound 417] | 80 to 100 | 80 to 100 |  |  |  |
| C/C=C/CCC(=O)Nc1sc(-c2cccnc2)nc1C [Compound 418] | 80 to 100 | 80 to 100 |  |  |  |
| CCN(C(=O)OC(C)(C)C)c1sc(-c2cncc(F)c2)nc1F [Compound 423] | < 80 | 80 to 100 |  |  |  |
| CCN(C(=O)C(C)C)c1sc(-c2cncc(F)c2)nc1F [Compound 424] | 80 to 100 | 80 to 100 |  |  |  |
| CCN(C(=O)CCSC)c1sc(-c2cncc(F)c2)nc1F [Compound 425] | 80 to 100 | 80 to 100 |  |  |  |
| C=CCN(C(=O)C(C)CSC)c1sc(-c2cccnc2)nc1C (stereo not drawn) [Compound 426] | 80 to 100 | 80 to 100 |  |  |  |
| CCN(C(=O)CC[S+](C)[O-])c1sc(-c2cncc(F)c2)nc1F (stereo not drawn) [Compound 427] |  |  | 80 to 100 | 80 to 100 |  |
| Cc1nc(-c2cccnc2)sc1NC(=O)C(F)(F)C(F)(F)C(F)(F)C(F)(F)F [Compound 428] |  |  | < 80 | < 80 |  |
| Cc1nc(-c2cccnc2)sc1NC(=O)CN(C)C(=O)C(C)n1cccn1 (stereo not drawn) [Compound 429] |  |  | 80 to 100 | < 80 |  |
| Cc1nc(-c2cccnc2)sc1N(C)C(=O)CN(C)C(=O)C(C)n1cccn1 (stereo not drawn) [Compound 430] |  |  | 80 to 100 | < 80 |  |

| Compound | pest or weed control at 200 ppm ([1]; green peach aphid) [%] | pest or weed control at 200 ppm ([2]; sweetpotato whitefly-crawler) [%] | pest or weed control at 200 ppm ([1]; Abbott's correction formula) [%] | pest or weed control at 200 ppm ([2]; Abbott's correction formula) [%] | other results |
| --- | --- | --- | --- | --- | --- |
| CC(C(=O)N(C)CC(=O)N(C)c1sc(-c2cccnc2)nc1Cl)n1cccn1 (stereo not drawn) [Compound 431] |  |  | 80 to 100 | < 80 |  |
| CN(C)CC(=O)N(C)c1sc(-c2cccnc2)nc1Cl [Compound 432] |  |  | < 80 | < 80 |  |
| Cc1nc(-c2cccnc2)sc1N(C)C(=O)CN(C)S(C)(=O)=O [Compound 433] |  |  | 80 to 100 | 80 to 100 |  |
| CN(C(=O)CN(C)S(C)(=O)=O)c1sc(-c2cccnc2)nc1Cl [Compound 434] |  |  | 80 to 100 | 80 to 100 |  |
| Cc1nc(-c2cccnc2)sc1NC(=O)CN(C)S(=O)(=O)/C=C/c1ccccc1 [Compound 435] |  |  | < 80 | < 80 |  |
| Cc1nc(-c2cccnc2)sc1N(C)C(=O)CN(C)S(=O)(=O)/C=C/c1ccccc1 [Compound 436] |  |  | < 80 | < 80 |  |
| CN(C(=O)CN(C)S(=O)(=O)/C=C/c1ccccc1)c1sc(-c2cccnc2)nc1Cl [Compound 437] |  |  | < 80 | < 80 |  |
| Cc1nc(-c2cccnc2)sc1NC(=O)CN(C)C(=O)c1cccs1 [Compound 438] |  |  | 80 to 100 | < 80 |  |
| Cc1nc(-c2cccnc2)sc1N(C)C(=O)[C@@H](C)N(C)C(=O)OCc1ccccc1 [Compound 439] |  |  | < 80 | < 80 |  |
| C[C@H](C(=O)N(C)c1sc(-c2cccnc2)nc1Cl)N(C)C(=O)OCc1ccccc1 [Compound 440] |  |  | < 80 | < 80 |  |
| CSCCC(=O)N(C)c1sc(-c2cncc(F)c2)nc1Br [Compound 441] |  |  | 80 to 100 | 80 to 100 |  |
| CSC(C)CC(=O)N(C)c1sc(-c2cncc(F)c2)nc1Cl (stereo not drawn) [Compound 442] |  |  | 80 to 100 | 80 to 100 |  |
| CSC(C)(C)CC(=O)N(C)c1sc(-c2cncc(F)c2)nc1Cl [Compound 443] |  |  | 80 to 100 | 80 to 100 |  |
| CSC(C)C(C)C(=O)N(C)c1sc(-c2cncc(F)c2)nc1Cl (stereo not drawn) [Compound 444] |  |  | 80 to 100 | 80 to 100 |  |
| CCN(C(=O)CC(C)SC)c1sc(-c2cncc(F)c2)nc1Cl (stereo not drawn) [Compound 446] |  |  | 80 to 100 | 80 to 100 |  |
| CCN(C(=O)CC(C)(C)SC)c1sc(-c2cncc(F)c2)nc1Cl [Compound 447] |  |  | 80 to 100 | 80 to 100 |  |
| CSCCNC(=S)Nc1sc(-c2cncc(F)c2)nc1Cl [Compound 450] |  |  | 80 to 100 | 80 to 100 |  |
| C[S+]([O-])CCC(=O)Nc1sc(-c2cncc(F)c2)nc1Cl (stereo not drawn) [Compound 451] |  |  |  |  | MYZUPE 200 ppm (Corrected % Control, rating) ([1]; Abbott's correction formula): A (80-100); BEMITA 200 ppm (Corrected % Control, rating) ([2]; Abbott's correction formula): B (Less than 80) |
| CCN(C(=O)OC(C)(C)C)c1sc(-c2cccnc2)nc1Br [Compound 452] |  |  | 80 to 100 | 80 to 100 |  |
